Source: PMC9963121, “Development of Combretastatin A-4 Analogues as Potential Anticancer Agents with Improved Aqueous Solubility” (Molecules, 2023)
Structures can show the parent of a compound that is named as a salt.

What was measured:
MCF-7 breast cancer cell = test: MTT cell growth inhibition assay, MCF-7 breast cancer cells; type: cell-based; settings: Homo sapiens, MCF7, mean ± SD of three experiments
From the text: (§1) Initially, we designed and synthesised seven compounds—9a and 12a1–12a6—and evaluated the anticancer activity and aqueous solubility. We evaluated the cytotoxic effects of these stilbene nitrile analogues against a panel of four human cancer cell lines (HCT-116, BEL-7402, MCF-7 and AGS) and two human non-cancerous normal cell lines (L-02 and MCF-10A), using CA-4 as a control. The compounds were screened for aqueous solubility in 0.01 M PBS using a high throughput UV method. […] It is possible that the size of the nitrogen heterocycle had little effect on the activity of these compounds. […] The aqueous solubility of all the compounds 12a1–12a6 was higher than that of 9a, particularly that of 12a1 and 12a2 containing piperazine rings. […] Of the six compounds with improved aqueous solubility, 12a1 had the best activity.
(§2) All human cell lines were used in this study. AGS gastric cancer cell, BEL-7402 liver cancer cell, HCT-116 colorectal cancer cell, L-02 normal liver cell, MCF-7 breast cancer cell, and MCF-10A normal breast cell were initially purchased from American Type Culture Collection (ATCC, Manassas, VA, USA). RPMI-1640 media, DMEM and FBS, were provided by Gibco Company. The cells were maintained in DMEM or RPMI-1640, supplemented with 10% FBS, 100 IU/mL penicillin and […] streptomycin, and at 37 °C in a humidified atmosphere containing 5% CO2.
(§3) The experiment was carried out according to the method of reference.

L-02 normal liver cell = test: MTT cell growth inhibition assay, L-02 normal liver cells; type: cell-based; settings: Homo sapiens, mean ± SD of three experiments
From the text: as §1, §2, §3

[1] = system: BEL-7402 liver cancer cell; test: MTT cell growth inhibition assay, BEL-7402 liver cancer cells; type: cell-based; settings: Homo sapiens, mean ± SD of three experiments, read-out: IC50 BEL-7402 Hepatoma Cells
From the text: as §1, §2, §3

[2] = Aqueous solubility in 0.01 M PBS, high throughput UV method; type: physicochemical; settings: for solubility thermodynamic at 1.5 h: aqueous phosphate buffer, aqueous buffer, sodium phosphate buffer 0.01 M, pH 7.4, 22 ± 2 °C, mean ± SD
From the text: as §1
The aqueous solubility was determined as a previously reported procedure. Put simply, a certain amount of powdered compound was placed in a 2 mL centrifuge tube and mixed with an appropriate volume of aqueous phosphate buffer (10 mM, pH 7.4) to make the whole system supersaturated. The mixtures were sonicated (KQ5200DE numerical control ultrasonic cleaner, Kunshan Ultrasonic Instrument Co., Ltd., SuZhou, China) for 20 min. After sonication, the mixture was allowed to equilibrate at RT (22 ± 2 °C) for 1.5 h with vortex shaking (1200 rpm). Then centrifuged at 3000 rpm for 15 min (1-14k, sigma, Darmstadt, Germany), the supernatant was filtered with a 0.22 µM filter membrane. And then, take 150 µL of filtrate and add it to 96-well UV plate with triplicate. Draw 150 μL of blank solution was added into plate as blank control. The 96-well UV plate prepared above was read on a Synergy HTX Multifunctional Microplate Reader (BioTek, Vermont, USA) at 294 nm. The absorbance of the sample was corrected according to the UV response of the sample and blank solution, and the corrected UV response values were used for solubility calculations by bringing into the standard curve of the compound. […]
1.5. Solubility Assessment
The aqueous solubility was determined as previously reported using the high throughput solubility screens procedure published by Bruno Bard et al [9. 10]. Put simply, a certain amount of powdered compound was placed in a 2 ml centrifuge tube and mixed with an appropriate volume of aqueous phosphate buffer (0.01 M, pH 7.4) to make the whole system supersaturated. The mixtures were sonicated (KQ5200DE numerical control ultrasonic cleaner, Kunshan Ultrasonic Instrument Co., Ltd., China) for 20 min. After sonication, the mixture was allowed to equilibrate at room temperature (22 ± 2°C) for 1.5 h with vortex shaking (1200 rpm). Then the centrifuge tube was put into the centrifuge (1-14k, sigma, Germany), centrifuged with 3000 rpm for 15 minutes, 0.22 µM filter membrane filtration supernatant, then take 150 µl filtrate and add it to 96-well UV plate, with three well for each compound. Draw 150 μL blank solution were added into 96 well-plate as blank control. The 96-well UV […]
plate prepared above was read on a SynergyHTX Multifunctional microplate reader (BioTek, USA) at 338 nm (compounds 12a-12d and 15-20) or 370 nm (compounds 9a-d). The absorbance of the sample was corrected according to the UV response of the sample and blank solution, and the corrected UV responses value were used for solubility calculations by bring into the standard curve of the compound. […]

[3] = system: HCT-116 colorectal cancer cell; test: MTT cell growth inhibition assay, HCT-116 colorectal cancer cells; type: cell-based, human; settings: Homo sapiens, HCT-116; MTT; mean ± SD of three experiments
From the text: as §1, §2, §3

AGS gastric cancer cell = test: MTT cell growth inhibition assay, AGS gastric cancer cells; type: cell-based; settings: Homo sapiens, mean ± SD of three experiments
From the text: as §1, §2, §3

[4] = system: MCF-10A normal breast cell; test: MTT cell growth inhibition assay, MCF-10A normal breast cells; type: cell-based; settings: Homo sapiens, mean ± SD of three experiments, read-out: IC50 MCF-10A Normal Breast Epithelial Cells
From the text: as §1, §2, §3

Row | SMILES | melting point [°C] | IC50 (MCF-7 breast cancer cell) [µM] | IC50 (L-02 normal liver cell) [µM] | IC50 [1] [µM] | solubility thermodynamic at 1.5 h [2] [µg/mL] | Decrease of aqueous solubility compared with 9a ([2]; ratio to 9a) | IC50 [3] [µM] | IC50 (AGS gastric cancer cell) [µM] | IC50 [4] [µM] | Water solubility (in words) ([2]; Figure 1) | Increase of aqueous solubility compared with 9a ([2]; 0.01 M PBS, ratio to 9a)
1 | COc1cc(/C(C#N)=C/c2ccc(NC(=O)CN3CCN(CCOCCO)CC3)cc2)cc(OC)c1OC (as salt: hydrochloride) [compound 16] | 240 to 243 | – | – | – | – | – | – | – | – | – | –
2 | COc1cc(/C(C#N)=C/c2ccc(NC(=O)CN3CCN[C@@H](C)C3)cc2)cc(OC)c1OC (as salt: hydrochloride) [compound 17] | 196 to 200 | – | – | – | – | – | – | – | – | – | –
3 | COc1cc(/C(C#N)=C/c2ccc(N)cc2C)cc(OC)c1OC [9b] | 224 to 230 | > 100 | 6.01 ± 1.35 | 0.16 ± 0.02 | 1.2 ± 0.3 | nine times | 0.16 ± 0.02 | 0.8 ± 0.14 | > 100 | – | –
4 | COc1ccc(/C(C#N)=C/c2ccc(N)cc2)cc1OC [9c] | – | 62.1 ± 8.12 | 15.7 ± 1.79 | 3.91 ± 0.8 | 4.5 ± 0.6 | – | 4.05 ± 0.72 | 19.5 ± 3.61 | > 100 | – | –
5 | COc1ccc(/C(C#N)=C/c2ccc(N)cc2C)cc1OC [9d, (Z)-3-(4-Amino-2-methylphenyl)-2-(3,4-dimethoxyphenyl)acrylonitrile monohydrochloride] | – | > 100 | 62.1 ± 10.6 | 9.72 ± 0.9 | 1.7 ± 0.2 | – | 5.86 ± 0.77 | 16.4 ± 0.42 | > 100 | – | –
6 | CCN1CCN(CC(=O)Nc2ccc(/C=C(\C#N)c3cc(OC)c(OC)c(OC)c3)cc2)CC1 [12a2] | – | 14.9 ± 1.32 | 16.6 ± 1.14 | 5.1 ± 0.37 | 26940 ± 78.8 | – | 5.37 ± 0.03 | 11.9 ± 2.62 | 25.8 ± 3.73 | – | –
7 | COc1cc(/C(C#N)=C/c2ccc(NC(=O)CN3CCCC3)cc2)cc(OC)c1OC [12a3] | – | 12.6 ± 0.91 | 11 ± 0.82 | 4.63 ± 0.89 | 67.4 ± 2.9 | – | 2.56 ± 0.58 | 17.9 ± 1.75 | 16.9 ± 1.24 | – | –
8 | CCN(CC)CC(=O)Nc1ccc(/C=C(\C#N)c2cc(OC)c(OC)c(OC)c2)cc1 [12a4] | – | 13.3 ± 2.59 | 69.4 ± 7.3 | 3.81 ± 0.43 | 15.5 ± 2.3 | – | 5.64 ± 0.15 | 12.6 ± 1.79 | 24.8 ± 4.44 | – | –
9 | COc1cc(/C(C#N)=C/c2ccc(NC(=O)CN3CCOCC3)cc2)cc(OC)c1OC [12a5] | – | 48.3 ± 5.41 | 40.7 ± 5.18 | 6.74 ± 1.97 | 15 ± 2.6 | – | 6.87 ± 1.04 | 29.1 ± 1.98 | > 100 | – | –
10 | COc1cc(/C(C#N)=C/c2ccc(NC(=O)CN3CCN(C)CC3)cc2C)cc(OC)c1OC [12b1] | – | 22.5 ± 3.6 | 20.3 ± 1.08 | 6.62 ± 2.09 | 104 ± 19.8 | – | 5.25 ± 1.6 | 15.6 ± 0.73 | 15.2 ± 0.66 | – | –
11 | CCN1CCN(CC(=O)Nc2ccc(/C=C(\C#N)c3cc(OC)c(OC)c(OC)c3)c(C)c2)CC1 [12b2] | – | 19.8 ± 3.16 | 22.1 ± 2.05 | 7.42 ± 1.76 | 253 ± 30.7 | – | 6.68 ± 1.1 | 15 ± 2.32 | 20.2 ± 2.4 | – | –
12 | COc1ccc(/C(C#N)=C/c2ccc(NC(=O)CN3CCN(C)CC3)cc2)cc1OC [12c1] | – | 33.9 ± 2.22 | 23.5 ± 3.87 | 8.95 ± 1.37 | 124 ± 8.7 | – | 4.4 ± 0.79 | 29.1 ± 1.98 | > 100 | – | –
13 | CCN1CCN(CC(=O)Nc2ccc(/C=C(\C#N)c3ccc(OC)c(OC)c3)cc2)CC1 [12c2] | – | 31.1 ± 4.38 | 22.1 ± 2.64 | 10.1 ± 2.18 | 85.1 ± 13.2 | – | 21.6 ± 2.87 | 48.8 ± 2.44 | 29.7 ± 4.56 | – | –
14 | COc1ccc(/C(C#N)=C/c2ccc(NC(=O)CN3CCN(C)CC3)cc2C)cc1OC [12d1] | – | 33.4 ± 0.84 | 42.4 ± 1.91 | 9.53 ± 0.93 | 124 ± 8.7 | – | 6.67 ± 2.38 | 40 ± 3.81 | 54.5 ± 13.2 | – | –
15 | CCN1CCN(CC(=O)Nc2ccc(/C=C(\C#N)c3ccc(OC)c(OC)c3)c(C)c2)CC1 [12d2] | – | 28.7 ± 3.14 | 25.8 ± 2.56 | 21.3 ± 0.71 | 85.1 ± 13.2 | – | 24 ± 2.46 | 15.3 ± 3.86 | 38.4 ± 4.48 | – | –
16 | COc1cc(/C(C#N)=C/c2ccc(C)cc2)cc(OC)c1OC [compound 2, reference compound] | – | – | – | – | 4 | – | 0.61 ± 0.16 | – | – | Poor water solubility | –
17 | COc1cc(/C(C#N)=C/c2ccc(NC(=O)CN3CCN(C(C)C)CC3)cc2)cc(OC)c1OC.Cl [compound 15] | – | 12.2 ± 0.93 | 22.6 ± 1.36 | 14.7 ± 1.09 | 8620 ± 525 | – | 8.32 ± 0.3 | 15.3 ± 3.02 | 21 ± 4.73 | – | –
18 | COc1cc(/C(C#N)=C/c2ccc(NC(=O)CN3CCN(CCOCCO)CC3)cc2)cc(OC)c1OC [compound 16] | – | 31.2 ± 4.73 | 23.4 ± 3.61 | 14.4 ± 2.38 | 2500 ± 266 | – | 12.6 ± 1.74 | 14.8 ± 3.37 | 18.9 ± 2.95 | – | more than 231 times
19 | COc1cc(/C(C#N)=C/c2ccc(NC(=O)CN3CCN[C@@H](C)C3)cc2)cc(OC)c1OC [compound 17] | – | 15.6 ± 1.87 | 28.2 ± 5.16 | 15 ± 2.32 | 504 ± 117 | – | 10.3 ± 1.07 | 22.6 ± 1.45 | 17.4 ± 3.56 | – | –
20 | COc1cc(/C(C#N)=C/c2ccc(NC(=O)CN3CCNC(C)C3)cc2)cc(OC)c1OC.Cl (centres unmarked) [compound 18] | – | 12.8 ± 2.96 | 28.4 ± 4.52 | 4.16 ± 0.97 | 1050 ± 67.3 | – | 9.73 ± 0.9 | 11.5 ± 2.32 | 14.1 ± 3.71 | – | –
21 | COc1cc(/C(C#N)=C/c2ccc(NC(=O)CN3CCNC[C@@H]3C)cc2)cc(OC)c1OC.Cl [compound 19] | 200 to 202 | 15.4 ± 1.88 | 23 ± 2.05 | 4.72 ± 0.99 | 79.5 ± 11.1 | – | 8.18 ± 0.67 | 5.58 ± 2.33 | 16.3 ± 2.14 | – | –
22 | COc1cc(/C(C#N)=C/c2ccc(NC(=O)CN3CCNC[C@H]3C)cc2)cc(OC)c1OC.Cl [compound 20] | 200 to 202 | 17.3 ± 2.31 | 25 ± 2.94 | 6.53 ± 1.67 | 111 ± 12.3 | – | 10.5 ± 2.32 | 15.2 ± 0.76 | 17.8 ± 2.78 | – | –
